Data from US8883782B2, “Spiro-tetracyclic ring compounds as beta-secretase modulators and methods of use” (Amgen Inc., priority 2010, dated 2014).
Read-outs that look alike come from different tables or passages of the source.

Key:
[1] = target: Beta Secretase enzyme (BACE) (Homo sapiens, UniProt P56817); assay: In vitro enzymatic BACE FRET (fluorescence resonance energy transfer) assay; format: biochemical
How it was run: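 A peptide bearing a fluorophore and quencher across the cleavage site serves as substrate at 50 nM. Reactions proceed one hour in acidic acetate buffer (0.05 M, pH 4.2) containing 10% DMSO final and 100 uM genapol, then are terminated with Tris and read fluorimetrically.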

[2] = test system: Aβ40 in conditioned medium of cells stably expressing Amyloid Precursor Protein (APP); assay: In vitro BACE cell-based assay (Aβ40 in conditioned medium, sandwich ELISA)
How it was run: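 Step two: 10-point compound titration added, starting 100 μM or 10 μM, 0.1% DMSO. Step three: medium Aβ40 measured by ELISA, capture 3 h and detection 2 h at 4° C, TRF read.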

[3] = average IC50, enzyme assay, read-out: BACE 1 FRET assay
[4] = Homo sapiens, HEK293, average IC50, HEK cells, read-out: HEK cell assay
[5] = Homo sapiens, HEK293, average IC50, read-out: HEK cell assay
[6] = Homo sapiens, HEK293, read-out: HEK cell assay (uM), average IC50, HEK cells

Chain of Beta Secretase enzyme (BACE) (P56817 46-501, species assumed): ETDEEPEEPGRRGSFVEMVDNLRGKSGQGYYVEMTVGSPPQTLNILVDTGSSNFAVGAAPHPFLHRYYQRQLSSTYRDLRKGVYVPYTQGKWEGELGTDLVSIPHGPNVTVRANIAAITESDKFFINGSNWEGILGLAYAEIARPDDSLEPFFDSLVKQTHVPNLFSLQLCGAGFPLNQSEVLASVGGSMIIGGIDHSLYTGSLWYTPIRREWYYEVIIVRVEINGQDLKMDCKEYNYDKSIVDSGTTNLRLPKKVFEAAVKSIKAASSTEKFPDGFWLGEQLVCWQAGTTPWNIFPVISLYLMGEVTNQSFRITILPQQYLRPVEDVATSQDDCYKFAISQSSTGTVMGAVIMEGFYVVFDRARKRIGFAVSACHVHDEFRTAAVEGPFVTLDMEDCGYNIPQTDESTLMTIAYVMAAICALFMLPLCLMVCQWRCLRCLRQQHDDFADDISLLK

Row | Compound | IC50 [1, 3] | IC50 [2, 4] | IC50 [2, 5] | other results
1 | CC1(C#Cc2cc(F)c3c(c2)[C@]2(COC(N)=N2)c2cc(-c4cncc(F)c4)ccc2O3)COC1 [Example 599, (4S)-4′-fluoro-7′-(5-fluoro-3-pyridinyl)-2′-((3-methyl-3-oxetanyl)ethynyl)spiro[1,3-oxazole-4,9′-xanthen]-2-amine] | 0.0011 µM | 0.011 µM |  | 
2 | NC1=N[C@@]2(CO1)c1cc(-c3cnccc3F)ccc1Oc1cnc(Cl)cc12 [Example 390, (5S)-3-chloro-7-(4-fluoro-3-pyridinyl)spiro[chromeno[2,3-c]pyridine-5,4′-[1,3]oxazol]-2′-amine] | 0.102 µM | 0.64 µM |  | 
3 | CC1(C#Cc2cc3c(c(F)n2)Oc2ccc(-c4cccnc4F)cc2[C@@]32COC(N)=N2)COC1 [Example 738, (5S)-1-fluoro-7-(2-fluoro-3-pyridinyl)-3-((3-methyl-3-oxetanyl)ethynyl)spiro[chromeno[2,3-c]pyridine-5,4′-[1,3]oxazol]-2′-amine] | 0.0006 µM |  | 0.01 µM | 
4 | COc1cc(F)c2c(c1)[C@@]1(CSC(N)=N1)c1cc(-c3cnccn3)ccc1O2 [Example 222, (4R)-4′-fluoro-2′-methoxy-7′-(2-pyrazinyl)spiro[1,3-thiazole-4,9′-xanthen]-2-amine] | 0.0414 µM |  | 1.08 µM | 
5 | CC1(C#Cc2cc3c(cn2)Oc2ccc(-c4cc(Cl)cnc4F)cc2[C@@]32COC(N)=N2)COC1 [Example 158, (5S)-7-(5-chloro-2-fluoro-3-pyridinyl)-3-((3-methyl-3-oxetanyl)ethynyl)spiro[chromeno[2,3-c]pyridine-5,4′-[1,3]oxazol]-2′-amine] | 0.001 µM |  | 0.0116 µM | 
6 | (4S)-4′-fluoro-7′-(2-fluoro-3-pyridinyl)-2′-((2S)-tetrahydro-2H-pyran-2-yl)spiro[1,3-oxazole-4,9′-xanthen]-2-amine [Example 219] | 0.0009 µM |  |  | IC50 ([2]; average IC50, read-out: HEK cell assay): 0.0062 µM
7 | NC1=N[C@@]2(CO1)c1cc(-c3cncc(F)c3)ccc1Oc1c(F)cc(N3CC4CCC(C3)O4)cc12 [Example 283, (4S)-4′-fluoro-7′-(5-fluoro-3-pyridinyl)-2′-(8-oxa-3-azabicyclo[3.2.1]oct-3-yl)spiro[1,3-oxazole-4,9′-xanthen]-2-amine] | 0.0004 µM |  | 0.0032 µM | 
8 | CC1(C)C[C@@H](c2cc3c(cn2)Oc2ccc(-c4cncc(F)c4)cc2[C@@]32COC(N)=N2)CCO1 [Example 380, (5S)-3-((4S)-2,2-dimethyltetrahydro-2H-pyran-4-yl)-7-(5-fluoro-3-pyridinyl)spiro[chromeno[2,3-c]pyridine-5,4′-[1,3]oxazol]-2′-amine] | 0.0302 µM |  | 0.101 µM | 
9 | CC1(COc2cc(F)c3c(c2)[C@]2(CSC(N)=N2)c2cc(-c4cccnc4F)ccc2O3)COC1 [Example 794, (4S)-4′-fluoro-7′-(2-fluoro-3-pyridinyl)-2′-((3-methyl-3-oxetanyl)methoxy)spiro[1,3-thiazole-4,9′-xanthen]-2-amine] | 0.0002 µM |  | 0.006 µM | 
10 | C[C@@H]1CN(c2cc(F)c3c(c2)[C@]2(COC(N)=N2)c2cc(-c4cccnc4F)ccc2O3)C[C@H](C)O1 [Example 303, (4S)-2′-((2R,6S)-2,6-dimethyl-4-morpholinyl)-4′-fluoro-7′-(2-fluoro-3-pyridinyl)spiro[1,3-oxazole-4,9′-xanthen]-2-amine] | 0.002 µM |  | 0.0067 µM | 
11 | CC(C)(C)/C=C/c1ccc2c(c1)[C@]1(COC(N)=N1)c1cc(-c3cncnc3)c(F)cc1O2 [Example 496, (4R)-7′-((1E)-3,3-dimethyl-1-buten-1-yl)-3′-fluoro-2′-(5-pyrimidinyl)spiro[1,3-oxazole-4,9′-xanthen]-2-amine] |  |  |  | IC50 ([1]; BACE 1 FRET assay (uM)): 0.0014 µM; IC50 [2, 6]: 0.0311 µM
12 | NC1=N[C@]2(CO1)c1cc(-c3cccnc3F)ccc1Oc1c2cc(C#Cc2cccnc2)nc1F [Example 747, (5R)-1-fluoro-7-(2-fluoro-3-pyridinyl)-3-(3-pyridinylethynyl)spiro[chromeno[2,3-c]pyridine-5,4′-[1,3]oxazol]-2′-amine] | 1.12 µM |  | ≥ 10 µM | 
13 | Cc1ccc(-c2cnc3c(c2)[C@]2(CSC(N)=N2)c2cc(-c4cccnc4)ccc2O3)cn1 [Example 958, (5S)-3-(6-methyl-3-pyridinyl)-7-(3-pyridinyl)spiro[chromeno[2,3-b]pyridine-5,4′-[1,3]thiazol]-2′-amine] | 0.0015 µM | 0.019 µM |  | 
14 | Cc1cc(-c2cc3c(cn2)Oc2ccc(-c4cccnc4F)cc2[C@@]32COC(N)=N2)on1 [Example 364, (5S)-7-(2-fluoro-3-pyridinyl)-3-(3-methyl-5-isoxazolyl)spiro[chromeno[2,3-c]pyridine-5,4′-[1,3]oxazol]-2′-amine] | 0.0069 µM |  | 0.0625 µM | 
15 | NC1=N[C@@]2(CO1)c1cc(-c3cccnc3F)ccc1Oc1ncc(C#CC3(O)COC3)cc12 [Example 519, 3-(((5S)-2′-amino-7-(2-fluoro-3-pyridinyl)spiro[chromeno[2,3-b]pyridine-5,4′-[1,3]oxazol]-3-yl)ethynyl)-3-oxetanol] | 0.0032 µM | 0.0297 µM |  | 
16 | CC(C)(O)C#Cc1cncc(-c2ccc3c(c2)[C@@]2(COC(N)=N2)c2cc(-c4ccnc(F)c4)ncc2O3)c1 [Example 817, 4-(5-((5S)-2′-amino-3-(2-fluoro-4-pyridinyl)spiro[chromeno[2,3-c]pyridine-5,4′-[1,3]oxazol]-7-yl)-3-pyridinyl)-2-methyl-3-butyn-2-ol] | 0.0135 µM |  | 1.48 µM | 
17 | NC1=N[C@@]2(CS1)c1cc(-c3cccnc3F)ccc1Oc1cnc(C3=CCOCC3)cc12 [Example 590, (5S)-3-(3,6-dihydro-2H-pyran-4-yl)-7-(2-fluoro-3-pyridinyl)spiro[chromeno[2,3-c]pyridine-5,4′-[1,3]thiazol]-2′-amine] |  |  |  | IC50 ([1]; BACE 1 FRET assay (uM)): 0.0007 µM; IC50 [2, 6]: 0.0093 µM
18 | NC1=N[C@@]2(CO1)c1cc(-c3ccc(F)nc3)ccc1Oc1c(F)cc(OC[C@H]3CC3(F)F)cc12 [Example 261, (4S)-2′-(((1R)-2,2-difluorocyclopropyl)methoxy)-4′-fluoro-7′-(6-fluoro-3-pyridinyl)spiro[1,3-oxazole-4,9′-xanthen]-2-amine] | 0.0068 µM |  | 0.0718 µM | 
19 | Cc1ncccc1-c1ccc2c(c1)[C@@]1(COC(N)=N1)c1cc(C3=CCOCC3)ncc1O2 [Example 247, (5S)-3-(3,6-dihydro-2H-pyran-4-yl)-7-(2-methyl-3-pyridinyl)spiro[chromeno[2,3-c]pyridine-5,4′-[1,3]oxazol]-2′-amine] | 0.0449 µM |  | 0.0455 µM | 
20 | CC1(C)CN(c2cc(F)c3c(c2)[C@]2(COC(N)=N2)c2cc(-c4cncc(F)c4)ccc2O3)CCO1 [Example 282, (4S)-2′-(2,2-dimethyl-4-morpholinyl)-4′-fluoro-7′-(5-fluoro-3-pyridinyl)spiro[1,3-oxazole-4,9′-xanthen]-2-amine] | 0.002 µM |  | 0.0082 µM | 

The remaining compounds from weak to strong by IC50 [1, 3], led by results:

Row | IC50 [1, 3] | IC50 [2, 4] | IC50 [2, 5] | Compound | other results
21 | 0.116 µM | 1.13 µM |  | CC(C)(C)COc1cc2c(cn1)Oc1ccc(-c3cccnc3F)cc1[C@]21COC(N)=N1 [Example 610, (5R)-3-(2,2-dimethylpropoxy)-7-(2-fluoro-3-pyridinyl)spiro[chromeno[2,3-c]pyridine-5,4′-[1,3]oxazol]-2′-amine] | 
22 | 0.0553 µM | 2.31 µM |  | NC1=N[C@@]2(CO1)c1cc(-c3cccc(Cl)c3)ccc1Oc1cnc(Cl)cc12 [Example 528, (5S)-3-chloro-7-(3-chlorophenyl)spiro[chromeno[2,3-c]pyridine-5,4′-[1,3]oxazol]-2′-amine] | 
23 | 0.017 µM | 0.176 µM |  | NC1=N[C@@]2(CO1)c1cc(-c3c(F)ccnc3F)ccc1Oc1cnc(C3CCOCC3)cc12 [Example 616, (5S)-7-(2,4-difluoro-3-pyridinyl)-3-(tetrahydro-2H-pyran-4-yl)spiro[chromeno[2,3-c]pyridine-5,4′-[1,3]oxazol]-2′-amine] | 
24 | 0.0084 µM |  | 0.106 µM | CC1(COc2cnc3c(c2)C2(COC(N)=N2)c2cc(-c4cc(Cl)ccc4F)ccc2O3)OCCO1 (stereo not shown) [Example 87, 7-(5-chloro-2-fluorophenyl)-3-((2-methyl-1,3-dioxolan-2-yl)methoxy)-5′H-spiro[chromeno[2,3-b]pyridine-5,4′-oxazol]-2′-amine] | 
25 | 0.0052 µM | 0.583 µM |  | COc1cc(-c2cc3c(cn2)Oc2ccc(-c4cccc(Cl)c4)cc2[C@@]32COC(N)=N2)ccc1F [Example 538, (5S)-7-(3-chlorophenyl)-3-(4-fluoro-3-methoxyphenyl)spiro[chromeno[2,3-c]pyridine-5,4′-[1,3]oxazol]-2′-amine] | 
26 | 0.004 µM | 0.057 µM |  | NC1=N[C@@]2(CS1)c1cc(-c3cccnc3F)ccc1Oc1cnc(C3CCOCC3)cc12 [Example 930, (5S)-7-(2-fluoro-3-pyridinyl)-3-(tetrahydro-2H-pyran-4-yl)spiro[chromeno[2,3-c]pyridine-5,4′-[1,3]thiazol]-2′-amine] | 
27 | 0.0036 µM |  | 0.0261 µM | COc1cccc(-c2ccc3c(c2)[C@@]2(COC(N)=N2)c2cc(C4=CCOCC4)cnc2O3)c1 [Example 322, (5S)-3-(3,6-dihydro-2H-pyran-4-yl)-7-(3-methoxyphenyl)spiro[chromeno[2,3-b]pyridine-5,4′-[1,3]oxazol]-2′-amine] | 
28 | 0.0011 µM |  | 0.0077 µM | NC1=N[C@@]2(CO1)c1cc(-c3cccnc3F)ccc1Oc1c(F)cc(-c3ccncc3)cc12 [Example 203, (4S)-4′-fluoro-7′-(2-fluoro-3-pyridinyl)-2′-(4-pyridinyl)spiro[1,3-oxazole-4,9′-xanthen]-2-amine] | 
29 | 0.0008 µM | 0.002 µM |  | CC#Cc1cncc(-c2ccc3c(c2)[C@@]2(COC(N)=N2)c2cc(C#CC(C)(C)O)cnc2O3)c1 [Example 945, 4-((5S)-2′-amino-7-(5-(1-propyn-1-yl)-3-pyridinyl)spiro[chromeno[2,3-b]pyridine-5,4′-[1,3]oxazol]-3-yl)-2-methyl-3-butyn-2-ol] | 
